The text below walks through data of ChEMBL document CHEMBL5131475, “Metallo-β-lactamases inhibitor fisetin attenuates meropenem resistance in NDM-1-producing Escherichia coli” (Eur J Med Chem, 2022).

≈ marks a conversion by molar mass, not a printed value.

In assay [1] the test system is Escherichia coli. Kind of assay: Antibacterial activity against NDM-1 positive Escherichia coli ZC-YN3 isolates assessed as lincomycin MIC incubated for 18 to 24 hrs by CLSI based broth microdilution method. The class given is functional. Conditions: time 18-24 hrs.
Assay [2] has as its system Escherichia coli. Kind of assay: Antibacterial activity against NDM-1 positive Escherichia coli ZC-YN3 isolates assessed as rifampicin MIC incubated for 18 to 24 hrs by CLSI based broth microdilution method. The assay is classed as functional. Conditions: time 18-24 hrs.
In assay [3] the test system is Escherichia coli. Put plainly: Antibacterial activity against pET28a-NDM-1 positive Escherichia coli BL21(DE3) isolates assessed as streptomycin MIC incubated for 18 to 24 hrs by CLSI based broth microdilution method. Particulars: time 18-24 hrs. The assay is classed as functional.
In assay [4] the test system is Escherichia coli. Put plainly: Synergistic antibacterial activity against NDM-1 positive Escherichia coli ZC-YN3 isolates assessed as fractional Inhibitory concentration index incubated for 18 to 24 hrs in presence of ampicillin by CLSI based broth microdilution method. Conditions: time 18-24 hrs. The class given is functional.
Assay [5] has as its system Escherichia coli. Put plainly: Synergistic antibacterial activity against NDM-1 positive Escherichia coli ZC-YN3 isolates assessed as fractional Inhibitory concentration index incubated for 18 to 24 hrs in presence of vancomycin by CLSI based broth microdilution method. The class given is functional. Particulars: time 18-24 hrs.
Assay [6] deals with Escherichia coli. Put plainly: Synergistic antibacterial activity against pET28a NDM-1 positive Escherichia coli BL21(DE3) isolates assessed as fractional Inhibitory concentration index incubated for 18 to 24 hrs in presence of colistin by CLSI based broth microdilution method. The class given is functional. Conditions: time 18-24 hrs.
The test system of assay [7] is Escherichia coli. Kind of assay: Antibacterial activity against pET28a-NDM-1 positive Escherichia coli BL21(DE3) isolates assessed as tetracycline MIC incubated for 18 to 24 hrs by CLSI based broth microdilution method. The assay is classed as functional. Conditions: time 18-24 hrs.
Assay [8] is described as follows: Inhibition of metallo-beta-lactamase NDM-9 (unknown origin) using nitrocefin as substrate preincubated for 15 min followed by substrate addition and measured after 15 min by microplate reader assay. The arrangement: species or system Bacteria.
The subject of assay [9] is Escherichia coli. Put plainly: Antibacterial activity against pET28a-NDM-1 positive Escherichia coli BL21(DE3) isolates assessed as rifampicin MIC incubated for 18 to 24 hrs by CLSI based broth microdilution method. The class given is functional. Conditions: time 18-24 hrs.
For assay [10], the system named is Bacteria.
Description: Binding affinity to NDM-1 M248A mutant (unknown origin) assessed as binding constant by fluorescence quenching method
The subject of assay [11] is Escherichia coli. Kind of assay: Synergistic antibacterial activity against NDM-1 positive Escherichia coli ZC-YN3 isolates assessed as fractional Inhibitory concentration index incubated for 18 to 24 hrs in presence of colistin by CLSI based broth microdilution method. The class given is functional. Conditions: time 18-24 hrs.
Assay [12] has as its system Escherichia coli. Put plainly: Antibacterial activity against pET28a-NDM-1 positive Escherichia coli BL21(DE3) isolates assessed as spectinomycin MIC incubated for 18 to 24 hrs by CLSI based broth microdilution method. The class given is functional. Conditions: time 18-24 hrs.
The subject of assay [13] is Escherichia coli. Kind of assay: Antibacterial activity against NDM-1 positive Escherichia coli ZC-YN3 isolates assessed as florfenicol MIC incubated for 18 to 24 hrs by CLSI based broth microdilution method. The assay is classed as functional. Particulars: time 18-24 hrs.
The subject of assay [14] is Escherichia coli. Put plainly: Synergistic antibacterial activity against NDM-1 positive Escherichia coli ZC-YN3 isolates assessed as fractional Inhibitory concentration index incubated for 18 to 24 hrs in presence of meropenem by CLSI based broth microdilution method. The class given is functional. Conditions: time 18-24 hrs.
For assay [15], the system named is Bacteria. Kind of assay: Binding affinity to NDM-1 M248A mutant (unknown origin) assessed as binding free energy by fluorescence quenching method.

`O=c1c(O)c(-c2ccc(O)c(O)c2)oc2cc(O)ccc12` [FISETIN]: the MIC is 1020 µg/mL with Escherichia coli [1]; 10.7 µg/mL with Escherichia coli [2]; 42.7 µg/mL in the assay with Escherichia coli [3]; 427 µg/mL in the assay on Escherichia coli [7]; 853 µg/mL with Escherichia coli [9]; 512 µg/mL with Escherichia coli [12]. Also, the MIC with Escherichia coli [13] amounted to 341 µg/mL. For the same compound, the “fractional inhibitory concentration index (FICI)” value was 1.13 in the assay with Escherichia coli [4]; 0.96 in the assay on Escherichia coli [5]; 1.13 in the assay with Escherichia coli [6]; 1.13 in the assay on Escherichia coli [11]; 0.31 in the assay on Escherichia coli [14]. The compound further showed an IC50 in [8] of 25.98 µg/mL (≈ 90.8 µM). Further, the Ka in the assay on Bacteria [10] is 7.39 10^5L/mol. In addition, in the assay with Bacteria [15], the Activity is -16.2 kcal/mol.
